“And” between values parts separate entries of the source, which are not always exact repeats. Identical values can stand only once.
System: normal human dermal fibroblast cultures
Assay: incorporation of radioactive glucosamine into the matrix neosynthesized by fibroblast cultures (GAG/hyaluronic acid synthesis)
Type: cell-based
Procedure: The study was performed by measuring the incorporation of radioactive glucosamine into the matrix neosynthesized by normal human dermal fibroblast cultures. The incorporation of radioactive glucosamine indicated a specific neosynthesis of glycosaminoglycans via incorporation of the acetylated form of this glucosamine.
The fibroblast cultures were prepared according to the standard methods of cell culturing, i.e., in MEM/M199 medium sold by Gibco, in the presence of sodium bicarbonate (1.87 mg/ml), L-glutamine (2 mM), penicillin (50 IU/ml) and 10% foetal calf serum (Gibco).
The test was performed on a cell culture at 80% confluence, on 96-well plates. The C-glycoside derivative at concentrations of 0.1 to 30 mM was placed in contact with the cells for 48 hours. Labeling with radioactive glucosamine (D-[6-H^3]-glucosamine, Amersham TRK398 (814 Gbq/mmol, 22 Ci/mmol)) was performed for 24 hours.
The level of radioactive glucosamine incorporated was measured at the end of the test by adsorption of the anionic molecules onto Q-sepharose beads followed by desorption of the sparingly and moderately anionic molecules with 6M urea plus 0.2M NaCl. Once washed, the radioactivity incorporated into the highly cationic molecules remaining on the support was counted.
The results were evaluated relative to a control consisting of cells that have not been treated with the C-glycoside derivative of formula (I).
A positive control (TGFβ at 10 ng/ml) known to stimulate GAG synthesis was introduced into the test as positive reference.

[1] = TGFβ at 10 ng/ml, positive control, two values given
[2] = 0.1 mM, 48 hours contact, labeling 24 hours
[3] = 0.3 mM, 48 hours contact, labeling 24 hours
[4] = 1 mM, 48 hours contact, labeling 24 hours
[5] = concentrations of 0.3, 1 and 3 mM
[6] = 3 mM, 48 hours contact, labeling 24 hours
[7] = 0.4 mM, 48 hours contact, labeling 24 hours
[8] = 2 mM, 48 hours contact, labeling 24 hours
[9] = 10 mM, 48 hours contact, labeling 24 hours
[10] = 0.5 mM, 48 hours contact, labeling 24 hours

Row | Molecule | % (relative to untreated control) [2] [%] | VALUE (radioactive glucosamine incorporated) [2] [cpm] | % (relative to untreated control) [3] [%] | VALUE (radioactive glucosamine incorporated) [3] [cpm] | % (relative to untreated control) [4] [%] | VALUE (radioactive glucosamine incorporated) [4] [cpm] | effect on incorporation of radioactive glucosamine [5] | further results
1 | TGFβ: positive control (TGFβ at 10 ng/ml) known to stimulate GAG synthesis |  |  |  |  |  |  |  | % (relative to untreated control) [1]: 348% and 454%; VALUE (radioactive glucosamine incorporated) [1]: 27124 cpm and 34865 cpm
2 | CC(C[C@@H]1OC[C@@H](O)[C@H](O)[C@H]1O)NCCCO (stereo partly drawn) [1-[2-(3-Hydroxypropylamio)Propyl]-C-β-D-Xylopyranose] | 110 | 11656 | 109 | 11585 | 140 | 14832 | stimulate the incorporation of radioactive glucosamine | 
3 | CC(O)C[C@@H]1OC[C@@H](O)[C@H](O)[C@H]1O (stereo partly drawn) [C-β-D-Xylopyranoside-2-hydroxypropane, C-β-D-xylopyranoside-2-hydroxypropane] |  |  | 139 | 11634 | 169 | 14209 |  | % (relative to untreated control) [6]: 218%; VALUE (radioactive glucosamine incorporated) [6]: 18271 cpm; effect on incorporation of radioactive glucosamine (concentrations of 0.1, 0.3 and 1 mM): stimulates the incorporation of radioactive glucosamine
4 | O=C(C[C@@H]1OC[C@@H](O)[C@H](O)[C@H]1O)c1ccccc1 [1-Phenyl-2-(C-β-D-Xylopyranoside)Ethan-1-One] | 120 | 10113 | 102 | 8545 | 95 | 7941 | stimulate the incorporation of radioactive glucosamine | 
5 | CC(=O)C[C@@H]1OC[C@@H](O)[C@H](O)[C@H]1O [C-β-D-Xylopyranoside-n-propan-2-one, C-β-D-xylopyranoside-n-propan-2-one] |  |  |  |  |  |  |  | % (relative to untreated control) [7]: 141%; VALUE (radioactive glucosamine incorporated) [7]: 8564 cpm; % (relative to untreated control) [8]: 131%; VALUE (radioactive glucosamine incorporated) [8]: 11014 cpm; % (relative to untreated control) [9]: 161%; VALUE (radioactive glucosamine incorporated) [9]: 12507 cpm and 9811 cpm; effect on incorporation of radioactive glucosamine (concentrations of 0.4, 2 and 10 mM): stimulates the incorporation of radioactive glucosamine
6 | O=C[C@H](O)[C@@H](O)[C@H](O)CO [D-Xylose, reference compound] | 102 | 6586 |  |  |  |  |  | % (relative to untreated control) [10]: 86%; VALUE (radioactive glucosamine incorporated) [10]: 4063 cpm
